Laboratory results taken from ChEMBL document CHEMBL3784957, “Patterns of biofilm structure and formation kinetics among Acinetobacter baumannii clinical isolates with different antibiotic resistance profiles” (2016).
In brackets after ≈: the same amount, converted by molar mass.

Legend:
Type in all cases: functional
[1] = system: Acinetobacter baumannii; experiment: Antimicrobial activity against Acinetobacter baumannii isolate 35 by broth microdilution assay
[2] = system: Acinetobacter baumannii; experiment: Antimicrobial activity against Acinetobacter baumannii isolate 30 by broth microdilution assay
[3] = system: Acinetobacter baumannii; experiment: Antimicrobial activity against Acinetobacter baumannii isolate 59 by broth microdilution assay
[4] = system: Acinetobacter baumannii; experiment: Antimicrobial activity against Acinetobacter baumannii isolate 38 by broth microdilution assay
[5] = system: Acinetobacter baumannii; experiment: Antimicrobial activity against Acinetobacter baumannii isolate 9 by broth microdilution assay
[6] = system: Acinetobacter baumannii; experiment: Antimicrobial activity against Acinetobacter baumannii isolate 52 by broth microdilution assay
[7] = system: Acinetobacter baumannii; experiment: Antimicrobial activity against Acinetobacter baumannii isolate 26 by broth microdilution assay
[8] = system: Acinetobacter baumannii; experiment: Antimicrobial activity against Acinetobacter baumannii isolate 20 by broth microdilution assay
[9] = system: Acinetobacter baumannii; experiment: Antimicrobial activity against Acinetobacter baumannii isolate 3 by broth microdilution assay
[10] = system: Acinetobacter baumannii; experiment: Antimicrobial activity against Acinetobacter baumannii isolate 45 by broth microdilution assay
[11] = system: Acinetobacter baumannii; experiment: Antimicrobial activity against Acinetobacter baumannii isolate 12 by broth microdilution assay
[12] = system: Acinetobacter baumannii; experiment: Antimicrobial activity against Acinetobacter baumannii isolate 15 by broth microdilution assay

| Compound | MIC [1] [µg/mL] | MIC [2] [µg/mL] | MIC [3] [µg/mL] | MIC [4] [µg/mL] | MIC [5] [µg/mL] | MIC [6] [µg/mL] | MIC [7] [µg/mL] | MIC [8] [µg/mL] | MIC [9] [µg/mL] | MIC [10] [µg/mL] | MIC [11] [µg/mL] | MIC [12] [µg/mL] |
| --- | --- | --- | --- | --- | --- | --- | --- | --- | --- | --- | --- | --- |
| C[C@H]1COc2c(N3CCN(C)CC3)c(F)cc3c(=O)c(C(=O)O)cn1c23.C[C@H]1COc2c(N3CCN(C)CC3)c(F)cc3c(=O)c(C(=O)O)cn1c23.O [LEVOFLOXACIN] | > 4 | > 4 | ≤ 0.12 | ≤ 0.12 | > 4 | > 4 | > 4 | > 4 | > 4 | > 4 | > 4 | > 4 |
| C[C@@H](O)[C@H]1C(=O)N2C(C(=O)O)=C(SCCNC=N)C[C@H]12 [IMIPENEM ANHYDROUS] | > 8 | 2 (≈ 6.68 µM) | ≤ 1 | ≤ 1 | > 8 | > 8 | ≤ 1 | > 8 | > 8 | > 8 | > 8 | > 8 |
| CCN1CCN(C(=O)N[C@@H](C(=O)N[C@@H]2C(=O)N3[C@@H]2SC(C)(C)[C@@H]3C(=O)O)c2ccccc2)C(=O)C1=O [PIPERACILLIN] | > 64 | > 64 | ≤ 8 | ≤ 8 | > 64 | > 64 | > 64 | > 64 | > 64 | > 64 | > 64 | > 64 |
| CN(C)c1ccc(O)c2c1C[C@H]1C[C@H]3[C@H](N(C)C)C(O)=C(C(N)=O)C(=O)[C@@]3(O)C(O)=C1C2=O [MINOCYCLINE] | ≤ 1 | ≤ 1 | ≤ 1 | ≤ 1 | 8 (≈ 17.5 µM) | ≤ 1 | 2 (≈ 4.37 µM) | 8 (≈ 17.5 µM) | 2 (≈ 4.37 µM) | 2 (≈ 4.37 µM) | ≤ 1 | ≤ 1 |
| GENTAMICIN | > 8 | > 8 | < 1 | < 1 | > 8 | 4 | < 1 | > 8 | < 1 | > 8 | > 8 | > 8 |
| O=C(O)c1cn(C2CC2)c2cc(N3CCNCC3)c(F)cc2c1=O [CIPROFLOXACIN] | > 2 | > 2 | ≤ 0.25 | ≤ 0.25 | > 2 | > 2 | > 2 | > 2 | > 2 | > 2 | > 2 | > 2 |
| CO/N=C(\C(=O)N[C@@H]1C(=O)N2C(C(=O)[O-])=C(C[N+]3(C)CCCC3)CS[C@H]12)c1csc(N)n1 [CEFEPIME] | 8 (≈ 16.6 µM) | 16 (≈ 33.3 µM) | 2 (≈ 4.16 µM) | 2 (≈ 4.16 µM) | 32 (≈ 66.6 µM) | > 32 | 16 (≈ 33.3 µM) | > 32 | 16 (≈ 33.3 µM) | 8 (≈ 16.6 µM) | 32 (≈ 66.6 µM) | > 32 |
| NC[C@H]1O[C@H](O[C@H]2[C@H](O)[C@@H](O[C@H]3O[C@H](CO)[C@@H](O)[C@H](N)[C@H]3O)[C@H](N)C[C@@H]2N)[C@H](N)C[C@@H]1O [TOBRAMYCIN] | > 8 | 8 (≈ 17.1 µM) | ≤ 1 | > 8 | > 8 | ≤ 1 | ≤ 1 | > 8 | ≤ 1 | 8 (≈ 17.1 µM) | > 8 | > 8 |
| C[C@@H](O)[C@H]1C(=O)N2C(C(=O)O)=C(S[C@@H]3CN[C@H](C(=O)N(C)C)C3)[C@H](C)[C@H]12 [MEROPENEM] | 8 (≈ 20.9 µM) | 2 (≈ 5.22 µM) | 1 (≈ 2.61 µM) | ≤ 0.25 | > 8 | > 8 | 1 (≈ 2.61 µM) | > 8 | > 8 | 8 (≈ 20.9 µM) | > 8 | > 8 |
| CC(C)(O/N=C(\C(=O)N[C@@H]1C(=O)N2C(C(=O)[O-])=C(C[n+]3ccccc3)CS[C@H]12)c1csc(N)n1)C(=O)O [CEFTAZIDIME] | > 16 | 16 (≈ 29.3 µM) | 2 (≈ 3.66 µM) | 4 (≈ 7.32 µM) | > 32 | > 32 | > 32 | > 32 | > 32 | > 32 | 16 (≈ 29.3 µM) | > 32 |
| NCC[C@H](O)C(=O)N[C@@H]1C[C@H](N)[C@@H](O[C@H]2O[C@H](CN)[C@@H](O)[C@H](O)[C@H]2O)[C@H](O)[C@H]1O[C@H]1O[C@H](CO)[C@@H](O)[C@H](N)[C@H]1O [AMIKACIN] | ≤ 2 | 4 (≈ 6.83 µM) | ≤ 2 | ≤ 2 | > 32 | ≤ 2 | ≤ 2 | > 32 | ≤ 2 | ≤ 2 | 8 (≈ 13.7 µM) | 16 (≈ 27.3 µM) |
| COLISTIN | < 0.5 | < 0.5 | < 0.5 | < 0.5 | < 0.5 | < 0.5 | < 0.5 | < 0.5 | < 0.5 | 8 | 16 | < 0.5 |
| CC1(C)S[C@@H]2[C@H](NC(=O)[C@H](C(=O)O)c3ccsc3)C(=O)N2[C@H]1C(=O)O [TICARCILLIN] | > 64 | > 64 | ≤ 8 | ≤ 8 | > 64 | > 64 | 32 (≈ 83.2 µM) | > 64 | > 64 | > 64 | 64 (≈ 166 µM) | > 64 |
